Test results reported in patent US9669001B2, “Antimicrobial composition” (CONVATEC TECHNOLOGIES INC., priority 2008, dated 2017).

Assays:
Assay type in all cases: cell-based
P. aeruginosa biofilms [1] = experiment: Minimum Biofilm Eradication Concentration (MBEC) method with cyan LED illumination; conditions: combinations in sterile water, cyan LED lamp; FIG. 4
S. aureus biofilms = experiment: Photo-catalytic therapy, in vitro wound biofilm model (pork belly); conditions: higher doses of RB and light, post-treatment rinse; FIG. 2
P. aeruginosa biofilms [2] = experiment: as above

Q: With “dialkyl dimethyl ammonium chloride [DDAC]” as the molecule, how does the “effect on the action of RB and light against biofilms” value (P. aeruginosa biofilms [1]) read?
A: The value was “potentiates the action of RB and light in a concentration-dependent manner”.

Q: How did the “effect on the action of RB and light against biofilms” value (P. aeruginosa biofilms [1]) turn out when `O=C(O)CN(CCN(CC(=O)O)CC(=O)O)CC(=O)O` [EDTA, ethylene diamine tetraacetic acid] was run?
A: Its value is “potentiates the action of RB and light in a concentration-dependent manner”.

Q: How did the biofilm cell reductions (S. aureus biofilms) turn out when `O=C1OC2(c3cc(I)c(O)c(I)c3Oc3c2cc(I)c(O)c3I)c2c(Cl)c(Cl)c(Cl)c(Cl)c21` [Rose Bengal, 4,5,6,7-Tetrachloro-3′,6′-dihydroxy-2′,4′,5′,7′-tetriodo-3H-spiro[isobenzofuran-1,9′-xanthen]-3-one] was run?
A: Its biofilm cell reductions is “over 3 log10”.

Q: And the “biofilm removal (reduction in P. aeruginosa)” value (P. aeruginosa biofilms [2]; 25 μM RB, PCT with post-treatment rinse step, FIG. 1)?
A: The value was 2 log.

Q: What about the “P. aeruginosa biofilm bacteria cell killing on raising dose” value (P. aeruginosa biofilms [2]; RB and light dose increased five-fold, no post-treatment rinse, FIG. 1 bars 2 & 4) of the same molecule?
A: Its value is “significantly increased reduction”.
